In patent US5985878A, “Angiogenesis inhibiting pyridazinamines” (Janssen Pharmaceuticals, N.V., priority 1996, dated 1999):

Tests used:
rat aortic ring = test: Angiogenesis inhibitory activity in vitro, rat aortic ring model (microvessel formation); assay type: cell-based; details: 192 h, microvessel area following eight days in culture
Protocol: Angiogenosis inhibitory activity was measured in vitro using the rat aortic ring model of angiogenesis as described by Nicosia, R. F. and Ottinetti in "Laboratory Investigation", vol. 63, p. 115, 1990. The ability of compounds to inhibit microvessel formation was compared to velicle-treatedcontrol rings.

angiogenesis = test: In vivo angiogenesis inhibitory activity, Matrigel model; set-up: species or system warm-blooded animal; details: po, administered orally
Protocol: The in vivo angiogenesis inhibitory activity was measured using the Matrigel model, as described in U.S. Pat. No. 5,382,514. Briefly, a liquid, containing extracts of murine basement membrane and an angiogenic growth factor (e.g. VEGF, bFGF, aFGF), was injected in a warm-blooded animal where it fonns a gel matrix. After a period of time, the gel is recovered from the anmimal and angiogenesis is quantitated. The test compounds were administered orally at a dose of 0.1 mg/kg.

IC50 (rat aortic ring) [nM] | SMILES | inhibition in vivo at 0.1 mg/kg (angiogenesis) [%]
0.2 | Cc1nsc(-c2ccc(N3CCC(C(C#N)c4cccc(Cl)c4)CC3)nn2)n1 (stereo not shown) [Compound 138] | > 70
0.2 | Cc1nsc(-c2ccc(N3CCC(N4CCN(c5cc(Cl)cc(Cl)c5)CC4)CC3)nn2)n1 [Compound 160] | 
0.6 | Cc1nsc(-c2ccc(N3CCC(C(O)c4cccc(C(F)(F)F)c4)CC3)nn2)n1 (stereo not shown) [Compound 134] | > 70
0.5 | Cc1nsc(-c2ccc(N3CCN(c4cccc(Br)c4)CC3)nn2)n1 [Compound 72] | 
0.2 | Cc1nsc(-c2ccc(N3CCC(Cc4cccc(C(F)(F)F)c4)CC3)nn2)n1 [Compound 132] | 
0.5 | Cc1nsc(-c2ccc(N3CCC(Sc4cccc(Cl)c4)CC3)nn2)n1 [Compound 139] | 
0.9 | Cc1nsc(-c2ccc(N3CCC(COc4cccc(Cl)c4)CC3)nn2)n1 [Compound 56] | 
0.3 | Cc1nsc(-c2ccc(N3CC=C(c4cccc(C(F)(F)F)c4)CC3)nn2)n1 [Compound 66] | 
0.2 | Cc1nsc(-c2ccc(N3CC[C@@H](c4cccc(C(F)(F)F)c4)[C@@H](C)C3)nn2)n1 (relative stereo) [Compound 108] | 
0.8 | Cc1nsc(-c2ccc(N3CCC(Nc4cccc(C(F)(F)F)c4)C3)nn2)n1 (stereo not shown) [Compound 169] | 
0.6 | COc1ccc(Cl)c(N2CCN(c3ccc(-c4nc(C)ns4)nn3)CC2)c1 [Compound 75] | > 70
0.3 | Cc1nsc(-c2ccc(N3CCC(C(=O)c4cccc(C(F)(F)F)c4)CC3)nn2)n1 [Compound 130] | 
0.2 | Cc1nsc(-c2ccc(N3CCN(c4ccccc4C(F)(F)F)CC3)nn2)n1 [Compound 76] | 
0.2 | Cc1nsc(-c2ccc(N3CCC(c4cc(C(F)(F)F)cc(C(F)(F)F)c4)CC3)nn2)n1 [Compound 111] | 
< 0.1 | Cc1nsc(-c2ccc(N3CCN(c4ccc(Br)cc4[N+](=O)[O-])CC3)nn2)n1 [Compound 85] | 
0.5 | Cc1nsc(-c2ccc(N3CCC(N(C)Cc4cccc(C(F)(F)F)c4)CC3)nn2)n1 [Compound 137] | 
0.3 | Cc1nsc(-c2ccc(N3CCC(N(C)c4cccc(C(F)(F)F)c4)CC3)nn2)n1 [Compound 142] | 
< 0.1 | Cc1nsc(-c2ccc(N3CCC(N4CCN(c5cc(C(F)(F)F)cc(C(F)(F)F)c5)CC4)CC3)nn2)n1 [Compound 161] | 
0.8 | Cc1nsc(-c2ccc(N3CCN(c4cc(Cl)c(Cl)cc4Cl)CC3)nn2)n1 [Compound 82] | > 70
0.05 | Cc1nsc(-c2ccc(N3CCN(c4cc(C(F)(F)F)cc(C(F)(F)F)c4)CC3)nn2)n1 [Compound 74] | > 70
0.3 | Cc1nsc(-c2ccc(N3CCC(N4CCN(c5cccc(C(F)(F)F)c5)CC4)CC3)nn2)n1 [Compound 53, 3-(3-methyl-1,2,4-thiadiazol-5-yl)-6-[4-[4-[3-(trifluoromethyl)phenyl]-1-piperazinyl]-1-piperidinyl]pyridazine] | > 70
0.5 | Cc1nsc(-c2ccc(N3CCC(C(=O)c4cccc(Cl)c4)CC3)nn2)n1 [Compound 135] | 

Continued, molecule first:

SMILES | IC50 (rat aortic ring) [nM] | inhibition in vivo at 0.1 mg/kg (angiogenesis) [%]
Cc1nsc(-c2ccc(N3CCN(c4cc(Cl)cc(Cl)c4)CC3)nn2)n1 [Compound 23] | 0.05 | 
Cc1nsc(-c2ccc(N3CCC(c4cccc(C(F)(F)F)c4)CC3)nn2)n1 [Compound 31, 3-(3-methyl-1,2,4-thiadiazol-5-yl)-6-[4-[3-(trifluoromethyl)phenyl]-1-piperidinyl]pyridazine] | 0.052 | > 70
Cc1nsc(-c2ccc(N3CCC(OC(c4ccccc4)c4ccccc4)CC3)nn2)n1 [Compound 54] |  | > 70
Cc1nsc(-c2ccc(N3CCN(c4cccc(Cl)c4Cl)CC3)nn2)n1 [Compound 24] | 0.3 | 
Cc1nsc(-c2ccc(N3CCC(c4cccc(C(F)(F)F)c4)C3)nn2)n1 (stereo not shown) [Compound 30] |  | > 70
Cc1nsc(-c2ccc(N3CCN(c4cccc(C(F)(F)F)c4)CC3)nn2)n1 [Compound 1, 3-(3-methyl-1,2,4-thiadiazol-5-yl)-6-[4-[3-(trifluoromethyl)phenyl]-1-piperazinyl]pyridazine] | 0.3 | 
Cc1nsc(-c2ccc(N3CCC(OCc4cccc(C(F)(F)F)c4)CC3)nn2)n1 [Compound 48] | 0.5 | 
Cc1nsc(-c2ccc(N3C4CCC3CC(c3cccc(C(F)(F)F)c3)C4)nn2)n1 (stereo not shown) [Compound 177] | 0.7 | > 70
Cc1nsc(-c2ccc(N3CCC(Nc4cccc(C(F)(F)F)c4)CC3)nn2)n1 [Compound 47] |  | > 70
Cc1nsc(-c2ccc(N3CCN(c4cc(Cl)ccc4Cl)CC3)nn2)n1 [Compound 27] | 0.2 | 
Cc1nsc(-c2ccc(N3CCN(c4cccc(Cl)c4)C(C)C3)nn2)n1 (stereo not shown) [Compound 13] | 0.8 | 
Cc1nsc(-c2ccc(N3CCN(c4ccc(Br)c(C(F)(F)F)c4)CC3)nn2)n1 [Compound 88, 3-[4-[4-bromo-3-(trifluoromethyl)phenyl]-1-piperazinyl]-6-(3-methyl-1,2,4-thiadiazol-5-yl)pyridazine] |  | > 70
Cc1nsc(-c2ccc(N3CCN(C4CCN(c5cccc(C(F)(F)F)c5)CC4)CC3)nn2)n1 [Compound 44] | 0.7 | 
Cc1nsc(-c2ccc(N3CCN(c4cccc(Cl)c4)CC3)nn2)n1 [Compound 2, 3-[4-(3-chlorophenyl)-1-piperazinyl]-6-(3-methyl-1,2,4-thiadiazol-5-yl)pyridazine] | 0.6 | > 70
Cc1nsc(-c2ccc(N3CCCC(c4cccc(C(F)(F)F)c4)CC3)nn2)n1 (stereo not shown) [Compound 32] | 0.9 | 
